Among the data in US5624956A, “Urea derivatives useful as platelet aggregation inhibitors” (The Monsanto Company, priority 1995, dated 1997) are inhibition and IC50 values, retold here.

The subject of the test is platelet aggregation (dog platelet-rich plasma). The test is described as follows: In-vitro platelet aggregation in PRP (ADP-induced, dog). The format is cell-based. The conditions noted are these: Canis lupus familiaris, ADP 50 um final concentration; for inhibition at 10 µM: at 10^-5 M, read-out: Dog PRP % Inh; for IC50: preincubation at 37° C., aggregation monitored for 1 minute. On the procedure: IN-VITRO PLATELET AGGREGATION IN PRP
Healthy male or female dogs were fasted for 8 hours prior to drawing blood; then 30 ml whole blood was collected using a butterfly needle and 30 cc plastic syringe with 3 ml of 0.129M buffered sodium citrate (3.8%). The syringe was rotated carefully as blood was drawn to mix the citrate. Platelet-rich plasma (PRP) was prepared by centrifugation at 975×g for 3.17 minutes at room temperature allowing the centrifuge to coast to a stop without braking. The PRP was removed from the blood with a plastic pipette and placed in a plastic capped, 50 mL Corning conical sterile centrifuge tube which was held at room temperature. Platelet poor plasma (PPP) was prepared by centrifuging the remaining blood at 2000×g for 15 minutes at room temperature allowing the centrifuge to coast to a stop without braking. The PRP was adjusted with PPP to a count of 2-3×10^8 platelets per mL. 400 uL of the PRP preparation and 50 uL of the compounds solution to be tested or saline were preincubated for […] at 37° C. in a […].). 50 uL of adenosine 5' diphosphate (ADP) (50 um final concentration) was added to the cuvettes and the aggregation was monitored for 1 minute. All compounds are tested in duplicate. Results are calculated as follows: Percent of control=[(maximal OD minus initial OD of compound) divided by (maximal OD minus initial OD of control saline)]×100. The % inhibition=100-(percent of control).
The compounds tested and their median inhibitory concentrations (IC50) are recorded in Table I. IC50 's (dosage at which 50% of platelet aggregation is inhibited) were calculated by linear regression of the dose response curve.

Molecules are shown by their SMILES.

`CC(C)[C@H](NC(=O)Nc1ccc(C(=N)N)cc1)C(=O)NC(CC(=O)O)c1cccnc1` (single isomer, unassigned) [10 (isomer 1)]: the inhibition at 10 µM was 9%.

The IC50 is the concentration that inhibits the measured activity by half. A higher IC50 goes with weaker potency in that assay. As to `C[C@H](CNC(=O)Nc1ccc(C(=N)N)cc1)C(=O)NC(CC(=O)O)c1ccc2c(c1)OCO2` (single isomer, unassigned) [14 (isomer 1)], it took 2000 nM to reach half-maximal inhibition (IC50).

`N=C(N)c1ccc(NC(=O)NCCC(=O)NC(CC(=O)O)c2cccnc2)cc1` (stereo not shown) [Example 2] gave a half-maximal inhibitory concentration (IC50) of 330 nM.

Turning to `N=C(N)c1ccc(NC(=O)NCC(=O)NC(CC(=O)O)c2cccnc2)cc1` (stereo not shown) [Example 4], the concentration for half-maximal inhibition (IC50) amounted to 260 nM.

Regarding `CN=C(NCCC(=O)NCCC(=O)O)Nc1ccc(C(=N)N)cc1` [Example 6, β-[[3-[[[4-(aminoiminomethyl)phenyl]amino]N-methylcarbonylimide]aminopropanoyl]amino]propanoic acid], the inhibition at 10 µM was 5%.

The compound `N=C(N)c1ccc(NC(=S)NCCC(=O)NCCC(=O)O)cc1` [Example 8, β-[[3-[[[4(aminoiminomethyl)phenyl]amino]-thiocarbonyl]aminopropanoyl]amino]propanoic acid] came in with an IC50 of 4900 nM.

Consider `N=C(N)c1ccc(NC(=O)NC(CC(=O)NCCC(=O)O)c2cccnc2)cc1` (stereo not drawn) [Example 12, β-[[3-[[[[4-(aminoiminomethyl)phenyl]amino]-carbonyl]amino](3-pyridine)propanoyl]amino]-propanoic acid], for which the IC50 turned out to be 6000 nM.
